According to patent publication US20100144672A1, “PYRIMIDINYL PYRAZOLES AS INSECTICIDES AND PARASITICIDE ACTIVE AGENTS” (BAYER CROPSCIENCE AG, priority 2006, published 2010):
Read-outs that look alike come from different tables or passages of the source.

Experiment: logP by HPLC (EEC-Directive 79/831 Annex V.A8)
Type: physicochemical
Procedure: The logP values given in the tables were determined in accordance with EEC-Directive 79/831 Annex V.A8 by HPLC (gradient method, acetonitrile/0.1% strength aqueous phosphoric acid or formic acid).

[1] = Physical data column of Table 35
[2] = HPLC gradient method, acetonitrile/0.1% strength aqueous phosphoric acid or formic acid

With `Nc1c(-c2cc(Cl)cc(Cl)c2)c(C(F)(F)F)nn1-c1nccc(C(F)(F)F)n1` [Example 19-152] the lgP (Table 19, Physical data) was “lgP = 4.25”.
With `COc1ccnc(-n2nc(C(F)(F)F)c(-c3cc(Cl)cc(Cl)c3)c2N)n1` [Example 19-171] the lgP (Table 19, Physical data) was “lgP = 2.93”.
For `Cc1ccnc(-n2nc(C(F)(F)F)c(-c3cc(F)cc(Cl)c3)c2N)n1` [Example 19-198], the lgP (Table 19, Physical data) was “lgP = 3.42”.
With `Cc1ccnc(-n2nc(C(F)(F)F)c(-c3cc(F)cc(F)c3)c2N)n1` [Example 19-199] the lgP (Table 19, Physical data) was “lgP = 3.06”.
In the case of `Cc1ccnc(-n2nc(C(F)(F)F)c(-c3ccc(Br)cc3F)c2N)n1` [Example 19-200], the lgP (Table 19, Physical data) is reported as “lgP = 3.28”.
With `Cc1ccnc(-n2nc(C(F)(F)F)c(-c3ccc(F)c(F)c3)c2N)n1` [Example 19-201] the lgP (Table 19, Physical data) was “lgP = 3.02”.
In the case of `Cc1cc(C)cc(-c2c(C(F)(F)F)nn(-c3nccc(C)n3)c2N)c1` [Example 19-202], the lgP (Table 19, Physical data) is reported as “lgP = 3.42”.
For `Cc1cnc(-n2nc(C(F)(F)F)c(-c3cc(F)cc(Cl)c3)c2N)nc1` [Example 19-203], the lgP (Table 19, Physical data) was “lgP = 3.42”.
For `Cc1cnc(-n2nc(C(F)(F)F)c(-c3cc(F)cc(F)c3)c2N)nc1` [Example 19-204], the lgP (Table 19, Physical data) was “lgP = 3.06”.
In the case of `Cc1cnc(-n2nc(C(F)(F)F)c(-c3ccc(Br)cc3F)c2N)nc1` [Example 19-205], the lgP (Table 19, Physical data) is reported as “lgP = 3.28”.
For `Cc1cnc(-n2nc(C(F)(F)F)c(-c3ccc(F)c(F)c3)c2N)nc1` [Example 19-206], the lgP (Table 19, Physical data) was “lgP = 3.02”.
For `Cc1cnc(-n2nc(C(F)(F)F)c(-c3cc(Br)cc(Br)c3)c2N)nc1` [Example 19-207], the lgP (Table 19, Physical data) was “lgP = 4.05”.
With `Cc1cnc(-n2nc(C(F)(F)F)c(-c3cc(C)cc(C)c3)c2N)nc1` [Example 19-208] the lgP (Table 19, Physical data) was “lgP = 3.47”.
In the case of `N#Cc1ccnc(-n2nc(C(F)(F)F)c(-c3cc(Cl)cc(Cl)c3)c2N)n1` [Example 19-209], the lgP (Table 19, Physical data) is reported as “lgP = 3.84”.
In the case of `CCNc1c(-c2ccc(F)cc2)c(C)nn1-c1ncccn1` [Example 25-04], the logP (Table 25, Physical data) is reported as “logP = 2.59”.
With `CCNc1c(-c2ccccc2Cl)c(C)nn1-c1ncccn1` [Example 25-05] the logP (Table 25, Physical data) was “logP = 2.69”.
For `CCNc1c(-c2cccc(Cl)c2)c(C)nn1-c1ncccn1` [Example 25-06], the logP (Table 25, Physical data) was “logP = 3.02”.
With `CCNc1c(-c2ccc(F)cc2Cl)c(C)nn1-c1ncccn1` [Example 25-31] the logP was “logP = 2.79”.
With `CCCNc1c(-c2cccc(Cl)c2)c(C)nn1-c1ncccn1` [Example 26-6] the logP (Physical data of Table 26) was “logP = 3.37”.
In the case of `CCCNc1c(-c2ccc(Cl)cc2)c(C)nn1-c1ncccn1` [Example 26-7], the logP (Physical data of Table 26) is reported as “logP = 3.42”.
With `Cc1nn(-c2ncccn2)c(NC(C)C)c1-c1ccc(F)cc1Cl` [Example 26-37] the logP (Physical data of Table 26) was “logP = 2.91”.
For `Cc1nn(-c2ncccn2)c(NCc2ccccc2)c1-c1ccccc1Cl` [Example 26-44], the logP (Physical data of Table 26) was “logP = 3.37”.
In the case of `Cc1nn(-c2ncccn2)c(NCc2ccccc2)c1-c1ccc(Cl)cc1Cl` [Example 26-54], the logP (Physical data of Table 26) is reported as “logP = 4.23”.
In the case of `Cc1nn(-c2ncccn2)c(NCC2CC2)c1-c1ccc(F)cc1` [Example 26-62], the logP (Physical data of Table 26) is reported as “logP = 3.15”.
For `CC(C)=CCNc1c(-c2ccc(Cl)cc2)c(C)nn1-c1ncccn1` [Example 26-84], the logP (Physical data of Table 26) was “logP = 3.84”.
In the case of `CCc1nn(-c2ncccn2)c(N)c1-c1ccc(Cl)nc1` [Example 32-37], the lgP (Physical data column of Table 32) is reported as “lgP = 1.76”.
For `Nc1c(-c2ccc(Cl)cc2)c(C2CC2)nn1-c1ncccn1` [Example 35-07], the logP [1] was “logP 2.66; ^1H-NMR”.
In the case of `Nc1c(-c2ccc(Br)cc2)c(C2CCCC2)nn1-c1ncccn1` [Example 35-87], the logP [1] is reported as “logP 3.34”.
With `Nc1c(-c2cc(F)cc(Cl)c2)c(C(F)(F)F)nn1-c1ncc(F)cn1` [Example 43-07] the lgP [2] was “lgP = 3.24”.
In the case of `Nc1c(-c2cc(F)cc(F)c2)c(C(F)(F)F)nn1-c1ncc(F)cn1` [Example 43-08], the lgP [2] is reported as “lgP = 2.93”.
In the case of `Nc1c(-c2ccc(Br)cc2F)c(C(F)(F)F)nn1-c1ncc(F)cn1` [Example 43-09], the lgP [2] is reported as “lgP = 3.15”.
With `Nc1c(-c2ccc(F)c(F)c2)c(C(F)(F)F)nn1-c1ncc(F)cn1` [Example 43-10] the lgP [2] was “lgP = 2.84”.
In the case of `Nc1c(-c2cc(Br)cc(Br)c2)c(C(F)(F)F)nn1-c1ncc(F)cn1` [Example 43-11], the lgP [2] is reported as “lgP = 3.84”.
